Test results reported in ChEMBL document CHEMBL6121057, “Discovery of an Orally Bioavailable STING Inhibitor with In Vivo Anti-Inflammatory Activity in Mice with STING-Mediated Inflammation” (J Med Chem, 2025).

Tests used:
[1] = Cmax in Sprague-Dawley rat at 2 mg/kg, iv measured […] by LC-MS/MS analysis; format: ADME, organism-based; settings: in vivo
[2] = AUC (0 to t) in Sprague-Dawley rat at 2 mg/kg, iv measured upto 60 mins by LC-MS/MS analysis; format: ADME, organism-based; settings: in vivo
[3] = Cmax in Sprague-Dawley rat at 10 mg/kg, po measured […] by LC-MS/MS analysis; format: ADME, organism-based; settings: in vivo
[4] = Tmax in Sprague-Dawley rat at 2 mg/kg, iv measured […] by LC-MS/MS analysis; format: ADME, organism-based; settings: in vivo
[5] = Tmax in Sprague-Dawley rat at 10 mg/kg, po measured […] by LC-MS/MS analysis; format: ADME, organism-based; settings: in vivo
[6] = Metabolic stability in human liver microsomes assessed as intrinsic clearance; format: ADME, Microsome; settings: read-out: CLH
[7] = AUC (0 to t) in Sprague-Dawley rat at 10 mg/kg, po measured upto 60 mins by LC-MS/MS analysis; format: ADME, organism-based; settings: in vivo
[8] = Half life in Sprague-Dawley rat at 2 mg/kg, iv measured upto 60 mins by LC-MS/MS analysis; format: ADME, organism-based; settings: in vivo
[9] = Oral bioavailability in Sprague-Dawley rat at 10 mg/kg measured […] by LC-MS/MS analysis; format: ADME, organism-based; settings: in vivo
[10] = Metabolic stability in human liver microsomes assessed as half life; format: ADME, Microsome

Cmax [1]: 1320 ng/mL
AUC(0-t) at 1 h [2]: 387 ng·h/mL
Cmax [3]: 8 ng/mL
Tmax [4]: 6 min
Tmax [5]: 48 min
CLint scaled [6]: 143 mL/min/kg
AUC(0-t) at 1 h [7]: 12 ng·h/mL
half-life [8]: 12 min
bioavailability [9]: 0.6%
half-life [10]: 6.2 min
SMILES: CCc1ccc(NC(=O)Nc2c[nH]c3ccccc23)cc1
